Test results as given in patent US20190064177A1, “INCORPORATING COMPETITIVE BINDING INFORMATION INTO MOLECULAR ARRAY ANALYSIS TO GENERATE FUNCTION NETWORKS OF INTERACTIONS” (ARIZONA BOARD OF REGENTS ON BEHALF OF ARIZONA STATE …, priority 2017, published 2019).

Test system: diaphorase
Assay: fluorescently labeled diaphorase binding to peptide array with or without excess FAD
Details: for 1 microM FAD (array fluorescence of bound diaphorase) / 1 micro no FAD (array fluorescence of bound diaphorase): 1 micromolar labeled diaphorase; for 1 microM FAD (array fluorescence of bound diaphorase) / 10 microM FAD (array fluorescence of bound diaphorase): excess FAD present; for 1 microM FAD (array fluorescence of bound diaphorase) / 1 micro no FAD (array fluorescence of bound diaphorase) / 10 microM FAD (array fluorescence of bound diaphorase) / 10 microM no FAD (array fluorescence of bound diaphorase): 65535 is detector saturation; for 10 microM FAD (array fluorescence of bound diaphorase) / 10 microM no FAD (array fluorescence of bound diaphorase): 10 micromolar labeled diaphorase; for 1 microM noFAD/FAD / 10 microM noFAD/FAD: ratio of binding without FAD to binding with FAD; for 1 microM noFAD/FAD / Meas. ratio: 1 micromolar diaphorase; for 10 microM noFAD/FAD: 10 micromolar diaphorase; for Meas. ratio: ratio without/with FAD calculated from measured binding values
Method: Measurements were performed in which diaphorase was bound to an array of about 126,000 unique sequences. The sequences were chosen simply to cover sequence space. 16 of the natural 20 amino acids were used to make up these sequences with C, I, M and T omitted. The diaphorase was fluorescently labeled and each peptide sequence feature was scanned and fluorescence recorded on the array. Diaphorase bound tightly to some peptides and not at all to others. Two different concentrations of diaphorase were used, 1 and 10 micromolar, and the diaphorase was either bound in the presence of excess FAD or not. […] Indeed the Pearson correlation coefficient between w/ and w/o FAD was >0.97, which actually speaks to the reproducibility of this dataset. However, there are some differences as shown on the scatter plot of FIG. 1. When one takes a ratio of the binding without FAD and the binding with FAD, one finds the following top 30 ratios (Table 1): Note that all these sequences end with a GSG linker sequence. Because there are two concentrations, one can easily check for consistency. Note that 65535 is detector saturation, so one has to ignore those values. For this reason, the lower concentration is used most of the time. […] It appears that this was some kind of error and was ignored in subsequent analysis. A similar conclusion can be made with the 7th highest value. Looking at the sequences, RW or at least R or K followed by a nonpolar or aromatic amino acid at the N-terminus. This is interesting as FAD is negatively charged, though the adenine in FAD looks a bit like tryptophan (see FIG. 2).

1 microM FAD (array fluorescence of bound diaphorase)	1 micro no FAD (array fluorescence of bound diaphorase)	10 microM FAD (array fluorescence of bound diaphorase)	10 microM no FAD (array fluorescence of bound diaphorase)	1 microM noFAD/FAD	10 microM noFAD/FAD	Meas. ratio	Sequence
7535.25	21898	65535	65535	2.906	1	2.91	RYYPAFSGGSG [array peptide with C-terminal GSG linker]
–	–	–	–	–	–	0.70	SGVLQFFGGSG [array peptide with C-terminal GSG linker]
2664.5	1341.5	21517.25	6065.25	0.5035	0.2819	0.50	SVLEGYQAVFGGSG [array peptide with C-terminal GSG linker]
2238	759	3374	2900.5	0.3391	0.8597	0.34	VERASYNLDGSG [array peptide with C-terminal GSG linker]
6638	4250.5	51495.5	26186.5	0.6403	0.5085	0.64	VFGVLSQVARDGSG [array peptide with C-terminal GSG linker]
12347.25	2221	17803.5	20355.75	0.1799	1.143	0.18	VKDGNKHYWRVSGSG (VKDGANKHYWRVSGSG) [array peptide with C-terminal GSG linker]
–	–	–	–	–	–	0.68	VLAYKLQVDGSG [array peptide with C-terminal GSG linker]
2705.5	1674.75	21822.25	9853.75	0.619	0.4515	0.62	VLSLNQVYSEGSG [array peptide with C-terminal GSG linker]
–	–	–	–	–	–	0.71	VSWVFGLGHEGGS
2304.25	1467.5	21180.25	9478.25	0.6369	0.4475	0.64	VVQALFDGSG [array peptide with C-terminal GSG linker]
–	–	–	–	–	–	0.70	WHLLGWVGYGGSG [array peptide with C-terminal GSG linker]
3433.25	2202	33610.5	25700.5	0.6414	0.7647	0.64	WLDLGVFPYQHLGSG [array peptide with C-terminal GSG linker]
2156.5	5654.5	31464.5	58885	2.622	1.871	2.62	WRGFKFADGGSG [array peptide with C-terminal GSG linker]
–	–	–	–	–	–	2.54	WRLNPLQFGGSG [array peptide with C-terminal GSG linker]
–	–	–	–	–	–	2.18	WRPFWKNLGGSG [array peptide with C-terminal GSG linker]
–	–	–	–	–	–	2.35	WRSVYVPNGGSG [array peptide with C-terminal GSG linker]
–	–	–	–	–	–	2.43	WRVQAWRPNKVEG

1 microM FAD (array fluorescence of bound diaphorase)	1 micro no FAD (array fluorescence of bound diaphorase)	10 microM FAD (array fluorescence of bound diaphorase)	10 microM no FAD (array fluorescence of bound diaphorase)	1 microM noFAD/FAD	10 microM noFAD/FAD	Meas. ratio	Sequence
1546	4014	18565.25	41333.25	2.596	2.226	2.60	YNRNAKSSGGSG [array peptide with C-terminal GSG linker]
–	–	–	–	–	–	2.56	YQRHQNVFAKSGG
1604.25	4467.75	19933.75	56915	2.785	2.855	2.78	YRFAQYKGQKDGSG [array peptide with C-terminal GSG linker]
2373	6240	37721.5	65535	2.63	1.737	2.63	YRFPNAQSPGGSG [array peptide with C-terminal GSG linker]
1489.75	4041.25	20226.25	50316.25	2.713	2.488	2.71	YRFQSGLPAKDGSG [array peptide with C-terminal GSG linker]
–	–	–	–	–	–	1.49	YRGAGKNKGGSG [array peptide with C-terminal GSG linker]
4146.5	12652.75	56689	65535	3.051	1.156	3.05	YRLNLKHPVGGSG [array peptide with C-terminal GSG linker]
2926	8372.25	43282	65535	2.861	1.514	2.86	YRNAAWFSGGSG [array peptide with C-terminal GSG linker]
6762.5	18709.5	65535	65535	2.767	1	2.77	YRPYGPVYNGGSG [array peptide with C-terminal GSG linker]
–	–	–	–	–	–	1.60	YRRFPYFPGGSG [array peptide with C-terminal GSG linker]
–	–	–	–	–	–	1.74	YRRPWKFRDGSG [array peptide with C-terminal GSG linker]
–	–	–	–	–	–	2.06	YRWGAKHYGGSG [array peptide with C-terminal GSG linker]
–	–	–	–	–	–	2.43	YRYGWQKYGGSG [array peptide with C-terminal GSG linker]
2100.75	1225.5	16872.25	8529	0.5834	0.5055	0.58	YSALFGLQEDGSG [array peptide with C-terminal GSG linker]
10415	1802.5	19218.25	19784.75	0.1731	1.029	0.17	YSVDYWYQVDGSG [array peptide with C-terminal GSG linker]
4688.5	2607.5	36320	17286.5	0.5561	0.4759	0.56	YVWGLELSGGSG [array peptide with C-terminal GSG linker]
–	–	–	–	–	–	2.56	YWRFYANWAQLFG
